Measurements: patent US20040180931A1, “Methods for treating Parkinson's disease” (priority 2000, published 2004)

Experiments:
Format in all cases: in vivo, humans
[1] = system: patients with Parkinson's disease who were suffering from dementia; assay: Mini-Mental State Examination (MMSE) in randomized, placebo-controlled, double-blind crossover study; conditions: 5 mg or 10 mg donepezil, 10 weeks, start of treatment to week 10
Experimental: (§1) A randomized, placebo-controlled, double-blind crossover study was conducted with fourteen patients with Parkinson's disease (13 men, 1 woman; mean age 78 (SD 3.6) years; mean duration of illness 11.4 (SD 4.9) years) who had developed cognitive impairments (mean Mini-Mental State Examination (MMSE) score 20.7 (SD 3.3)) 8.6 (SD 5.8) years after the onset of parkinsonism. […] At weeks 6 and 10 the patients completed a battery of cognitive tests. Cognitive impairments were measured using the MMSE and the CIBIC, a 7-point scale of the clinician's interview-based impression of change based upon information scored independently of the MMSE. Parkinsonism was assessed using the Unified Parkinson's Disease Rating Scale (UPDRS).

[2] = system: patients with Parkinson's disease who were suffering from dementia; assay: CIBIC+ (clinician's interview-based impression of change) in randomized, placebo-controlled, double-blind crossover study
Experimental: as §1

[3] = system: patients with Parkinson's disease and mild or moderate dementia; assay: Overall efficacy / cognitive function in crossover study
Experimental: as §1

Structure (SMILES): COc1cc2c(cc1OC)C(=O)C(CC1CCN(Cc3ccccc3)CC1)C2 (stereo not drawn) [donepezil, 1-benzyl-4-((5,6-dimethoxy-1-indanon)-2-yl)methylpiperidine]
- mean MMSE score difference from baseline to week 10 [1]: 2.1 points
- mean CIBIC+ score at week 10 ([2]; 5 mg or 10 mg donepezil, week 10, 7-point scale): 3.3
- CIBIC+ response rate (improvement, CIBIC+ score of 3 or lower) ([2]; 10 weeks of treatment): 42%
- number of patients with improvement (CIBIC+ score of 3 or lower) ([2]; 10 weeks of treatment): 5 patients
- all efficacy measures versus placebo ([3]; in vivo): numerical benefit
- cognitive function ([3]; treated for 10 weeks): improvement
